Reference: publication PMC10138721, “Investigation of the Compatibility between Warheads and Peptidomimetic Sequences of Protease Inhibitors—A Comprehensive Reactivity and Selectivity Study” (International Journal of Molecular Sciences, 2023)
Entries after “also recorded” stand apart in the source; their conditions may differ. Like-named read-outs stand apart in the source and are kept apart here.

Columns and labels:
proteasome β5-subunit = target: T1, proteasome β5-subunit (Homo sapiens, UniProt P20618+P28074); experiment: Fluorometric inhibition assay, proteasome β5-subunit; type: biochemical
T1 construct: purchased Enzo Life sciences

human cathepsin S (CatS) = target: T2, human cathepsin S (CatS) (Homo sapiens, UniProt P25774); experiment: Fluorometric inhibition assay, cathepsin S; type: biochemical
T2 construct: purchased Sigma Aldrich
T2 sequence (P25774 115-331): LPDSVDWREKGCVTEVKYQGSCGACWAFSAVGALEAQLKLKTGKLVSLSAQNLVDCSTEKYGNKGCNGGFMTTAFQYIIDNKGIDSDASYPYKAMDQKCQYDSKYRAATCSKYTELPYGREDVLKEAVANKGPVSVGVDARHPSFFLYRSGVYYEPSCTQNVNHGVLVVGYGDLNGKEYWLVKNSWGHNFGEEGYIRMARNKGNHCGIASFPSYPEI

rhodesain = rhodesain (Trypanosoma brucei rhodesiense, UniProt Q95PM0); experiment: Fluorometric inhibition assay, rhodesain; type: biochemical; details: for Ki: Rhodesain
Chain of rhodesain (Q95PM0 entry or part of it): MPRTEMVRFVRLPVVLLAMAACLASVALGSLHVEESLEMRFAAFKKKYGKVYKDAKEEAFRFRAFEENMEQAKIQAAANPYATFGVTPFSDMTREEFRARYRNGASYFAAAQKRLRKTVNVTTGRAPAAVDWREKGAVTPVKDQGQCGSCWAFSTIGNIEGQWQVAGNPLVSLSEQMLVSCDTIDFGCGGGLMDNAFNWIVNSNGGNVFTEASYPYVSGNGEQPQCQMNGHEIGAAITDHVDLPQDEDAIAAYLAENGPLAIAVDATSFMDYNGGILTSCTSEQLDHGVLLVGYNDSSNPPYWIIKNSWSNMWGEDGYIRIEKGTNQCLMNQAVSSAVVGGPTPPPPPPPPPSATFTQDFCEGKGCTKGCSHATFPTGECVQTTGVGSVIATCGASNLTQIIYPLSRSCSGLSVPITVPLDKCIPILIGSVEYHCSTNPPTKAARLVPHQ

[1] = target: T3, urokinase-type plasminogen activator (uPA) (Homo sapiens, UniProt P00749); experiment: Fluorometric inhibition assay, uPA; type: biochemical
T3 construct: purchased Sigma Aldrich

[2] = target: SARS-CoV-2 main protease (M^pro) (Severe acute respiratory syndrome coronavirus 2, UniProt P0DTD1); experiment: Fluorometric (FRET) inhibition assay, SARS-CoV-2 M^pro; type: biochemical; details: initial screen at 20 µM, cut-off 80% inhibition
[3] = Reactivity test of warhead probes with PhEtSH without base (NMR/LC-MS); type: physicochemical; details: non-basic conditions; for reactivity with PhEtSH (protonated thiol), in words: DMSO-d6, up to 240 min
Source text: (§1) To investigate the reactivity between the different warheads towards the three classes of proteases (serine, threonine and cysteine proteases), their behavior in model systems under the same reaction conditions (solvent, nucleophile and base) using either NMR or LC-MS analysis was investigated. We used reactivity probes with a Boc-L-Leu-(warhead) sequence. Leucin was chosen as a P1 amino acid to minimize influences of the side chain and due to synthetic accessibility. 2-Phenylethanethiol was used as a model nucleophile to mimic the thiol moiety of cysteine proteases, and sodium ethoxide was used as a serine/threonine replacement. DMSO-d6 was used as solvent. Under these conditions, the nucleophile is deprotonated, simulating the activated serine or threonine in the catalytic triad of serine and threonine proteases, while ethanol as protonated alcohol species turned out to be unreactive in preliminary test reactions. The reactivity tests using 2-phenylethanthiol were carried out in the presence and absence of triethylamine as a base. This allowed for a reactivity comparison of the warheads towards protonated and deprotonated nucleophilic thiol species. Generating a deprotonated thiol species in the presence of triethylamine simulates the deprotonated cysteine in the catalytic dyad of cysteine proteases. Scheme 8 illustrates the reaction of the reactivity assay with both model nucleophiles and the vinyl sulfone moiety 109 as an example.
(§2) The reactivity tests of all Michael acceptors, 109, 110, 111 and 112, the α-ketobenzothiazole 115 and nitrile 117 were investigated using an NMR-based analysis method, while the β-lactam 108 reactivity was investigated via LC-MS, due to its lack of proton signals, which could be used for evaluation of the reactivity in the ^1H-NMR studies, and the irreversible reaction mechanism, which allowed the LC-MS analysis. […] Formation of the expected adducts with the nitrile 117 (PhEtSH/PhEtS^–/EtONa), the α-ketobenzothiazole 115 (PhEtSH/PhEtS^–) and the nitroalkene 111 (EtONa) could not be observed. This may have been due to the covalent reversible reaction mechanism of the nitrile and α-ketobenzothiazole and the overall difficult ionization of the specific compounds by an electron spray ionization mass spectrometer.
(§3) Method A (NMR): ^1H-NMR spectra were recorded for the respective warhead and nucleophile mixture, before the addition of the nucleophile (0 min) and after 5, 30, 60, 120 and 240 min reaction time. For quantification, the double bond-signals (doublet/doublet of doublets, around 7.4–6.7 ppm) of the Michael acceptors were integrated relative to 1,3-dioxolane as an internal standard. The acetal CH2 signal of the internal standard at 5.3 ppm was used as a reference.
(§4) The α-ketobenzothiazole 115 and nitrile 117 were similarly analyzed by ^13C-NMR. Therefore, the corresponding ^13C-leucin derivates were synthesized (Scheme 7). Quantifications of the reactions were carried out by using the integral of the carbonyl carbon atom signal at 195 ppm for the α-ketobenzothiazole and 120 ppm for the nitrile moiety. The reference signal of DMSO-d6 was set to 39.52 ppm.
(§5) Method B (LC-MS): The reactivity of the β-lactam test compound 108 with the nucleophiles was investigated using an LC-MS-based method. To quantify the conversion, the AUCs were determined at 254 nm. In Figure 3, the UV spectra of the test reaction of the β-lactam 108 with EtONa are shown exemplarily.
(§6) The β-lactam 108 (0.07 mmol, 1eq) was solved in DMSO-d6 (0.5 mL). The reaction was measured in time intervals before (0 min), 5, 30, 60, 120 and 240 mins after the addition of the corresponding nucleophile (PhEtSH/EtONa, 2 eq) in presence of Et3N (2 eq) or not. In case of PhEtSH as the nucleophile the reaction got quenched by pouring 10 µL of the reaction mixture into a solution of 25 mM TRIS (pH 7.00) and 27 mM maleimide in a 1:1 mixture of acetonitrile/H2O (990 µL). For the reaction with EtONa as the nucleophile, the reaction solution […]

[4] = Reactivity test of warhead probes with PhEtSH + Et3N (NMR/LC-MS); type: physicochemical; details: for reactivity with PhEtSH + Et3N (deprotonated thiol), in words: DMSO-d6, up to 240 min
Source text: as §1, §2, §3, §4, §5, §6

[5] = Reactivity test of warhead probes with EtONa (NMR/LC-MS); type: physicochemical; details: for reactivity with EtONa, in words: DMSO-d6, up to 240 min
Source text: as §1, §2, §3, §4, §5, §6

[6] = initial screen at 20 µM, cut-off 80% inhibition

CC(C)C[C@@H](/C=C(\F)S(=O)(=O)c1ccccc1)NC(=O)[C@H](Cc1ccccc1)NC(=O)c1cnccn1 [compound 55]
inhibition of the proteasome β5-subunit, in words (proteasome β5-subunit): None | Ki (human cathepsin S (CatS); Ki, CatS): 934 ± 138 nM | Ki (human cathepsin S (CatS); pKi, Cathepsin S inhibition): 1000 nM | Ki (rhodesain): 462 ± 39 nM

CC(C)C[C@@H](C=C[N+](=O)[O-])NC(=O)[C@H](Cc1ccccc1)NC(=O)c1cnccn1 [compound 59]
inhibition of the proteasome β5-subunit, in words (proteasome β5-subunit): None | Ki (human cathepsin S (CatS); Ki, CatS): 619 ± 54 nM | Ki (rhodesain): 2 ± 5 nM

CC(C)CC(NC(=O)C(Cc1ccccc1)NC(=O)c1cnccn1)C(=O)c1nc2ccccc2s1 (centres unmarked) [compound 62]
inhibition of the proteasome β5-subunit, in words (proteasome β5-subunit): None and no inhibition

CCOC(=O)/C=C/C(=O)[C@H](CC(C)C)NC(=O)[C@H](Cc1ccccc1)NC(=O)c1cnccn1 [compound 68]
inhibition of the proteasome β5-subunit, in words (proteasome β5-subunit): None | activity against CatS, in words (human cathepsin S (CatS)): essentially inactive | Ki (rhodesain): 9 ± 1 nM | kinact (rhodesain; read-out: kinact, Rhodesain): 0.006 ± 0.001 s⁻¹

CC(C)C[C@H](NC(=O)[C@H](Cc1ccccc1)NC(=O)c1cnccn1)C(=O)N[C@H]1CN(c2ccccc2)C1=O [compound 72]
inhibition of the proteasome β5-subunit, in words (proteasome β5-subunit): None and did not inhibit

CC(C)CC(C#N)NC(=O)C(Cc1ccccc1)NC(=O)c1cnccn1 (centres unmarked) [compound 74]
inhibition of the proteasome β5-subunit, in words (proteasome β5-subunit): None and no inhibition and missing inhibition | Ki (human cathepsin S (CatS); Ki, CatS): 238 ± 23 nM | Ki (rhodesain): 560 ± 267 nM

COC(=O)[C@H](C[C@@H]1CCNC1=O)NC(=O)OC(C)(C)C [compound 85]
inhibition of the proteasome β5-subunit, in words (proteasome β5-subunit; [6]): None

CC(=O)NCC(=O)NC(C(=O)N[C@@H](C)C(=O)N[C@@H](CCCNC(=N)N)C(=O)c1nc2ccccc2s1)[C@H](C)O (some centres unmarked) [compound 103]
Ki ([1]; Table S1; a) calculated from IC50 with Cheng–Prusoff, n.a. = not active (<80% inhibition at 20 µM), read-out: Ki, uPA): 141 ± 27 nM | Ki ([1]; calculated from Ki, –log10(Ki/M), read-out: pKi, uPA inhibition (converted)): 126 nM | activity against uPA, in words [1, 6]: active; also recorded: displayed inhibitory activity | inhibition of the proteasome β5-subunit, in words (proteasome β5-subunit; [6]): not inhibited | activity against CatS, in words (human cathepsin S (CatS); [6]): not inhibited; also recorded: not active at 20 µM | activity against M^pro, in words [2]: not inhibited | activity against rhodesain, in words (rhodesain; [6]): not inhibited; also recorded: inactive

CC(C)CC(/C=C/[N+](=O)[O-])NC(=O)OC(C)(C)C (centres unmarked) [compound 111]
reactivity with PhEtSH (protonated thiol), in words [3]: conversion was not observed | maximum conversion with PhEtSH + Et3N ([4]; DMSO-d6, after 240 min): 82% | reactivity with PhEtSH + Et3N (deprotonated thiol), in words [4]: high reactivity | conversion with EtONa ([5]; DMSO-d6, after 240 min): 84%

CCOC(=O)/C=C/C(=O)C(CC(C)C)NC(=O)OC(C)(C)C (centres unmarked) [compound 112]
conversion with PhEtSH ([3]; DMSO-d6, after 240 min): 92% | reactivity with PhEtSH (protonated thiol), in words [3]: did indeed react; also recorded: high reactivity | time to full conversion with PhEtSH + Et3N ([4]; DMSO-d6): 5 min | reactivity with PhEtSH + Et3N (deprotonated thiol), in words [4]: high reactivity | time to full conversion with EtONa ([5]; DMSO-d6): 5 min | reactivity with EtONa, in words [5]: unspecific conversion

CC(C)CC(NC(=O)OC(C)(C)C)[13C](=O)c1nc2ccccc2s1 (centres unmarked) [compound 115]
conversion with PhEtSH ([3]; DMSO-d6, after 240 min): 18% | reactivity with PhEtSH (protonated thiol), in words [3]: did indeed react | conversion with PhEtSH + Et3N ([4]; DMSO-d6, time not stated): around 30% | reactivity with PhEtSH + Et3N (deprotonated thiol), in words [4]: strong reactivity | maximum conversion with EtONa ([5]; DMSO-d6, maximum reached after 60 min): 37% | reactivity with EtONa, in words [5]: strong reactivity

CC(C)C[C@@H]([13C]#N)NC(=O)OC(C)(C)C [compound 117]
conversion with PhEtSH ([3]; DMSO-d6, time not stated): 7% | reactivity with PhEtSH (protonated thiol), in words [3]: did indeed react | reactivity with PhEtSH + Et3N (deprotonated thiol), in words [4]: Every warhead except the β-lactam 108 and the nitrile 117 reacted; also recorded: no reaction | conversion with EtONa ([5]; DMSO-d6, at 5 min): 10%
